Laboratory results from ChEMBL document CHEMBL1201862, “PubChem BioAssay data set” (2004).
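Exposure lasted 48 hours, with cells grown in 96-well plates and compounds tested at five concentrations. GI50 = concentration required for 50% inhibition of growth.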 Activity calls are given as the source filed them. Cut-off read from the data, not from the text of the source: active = GI50 up to about 1.1 µM and inactive = higher. Where a SMILES comes first, the peptide text is derived from it. [ ]: non-standard residue; d: D form. The star is where a group is joined. Phe(4-NO2) = N[CH](Cc1ccc([N+](=O)[O-])cc1)C(=O)O; Boc = CC(C)(C)OC(=O)*; OtBu = CC(C)(C)O*

Key:
Experiment in all cases: DTP human tumour cell line panel, 48 h
HT-29 = system: HT-29
K562 = system: K562
SF-268 = system: SF-268
ACHN = system: ACHN
MDA-MB-231 = system: MDA-MB-231
UO-31 = system: UO-31
MCF7 = system: MCF7
COLO 205 = system: COLO 205
U-251 = system: U-251
SNB-19 = system: SNB-19
CAKI-1 = system: CAKI-1
RPMI-8226 = system: RPMI-8226
OVCAR-4 = system: OVCAR-4
SF-295 = system: SF-295
MOLT-4 = system: MOLT-4
OVCAR-5 = system: OVCAR-5
PC-3 = system: PC-3
SR = system: SR
MDA-N = system: MDA-N
CCRF-CEM = system: CCRF-CEM

Measured: GI50

CCCCCCCCCCCCCC(=O)NO
inactive: HT-29 8.99 µM | K562 3.03 µM | SF-268 7.78 µM | ACHN 14.9 µM | MDA-MB-231 7.01 µM | UO-31 6.38 µM | MCF7 3.8 µM | COLO 205 10.5 µM | U-251 10.7 µM | SNB-19 23.9 µM | CAKI-1 17.3 µM | RPMI-8226 5 µM | OVCAR-4 6.79 µM | SF-295 21.4 µM | OVCAR-5 17.6 µM | PC-3 4.32 µM | MDA-N 25.7 µM
active: MOLT-4 0.492 µM | SR 0.518 µM | CCRF-CEM 0.158 µM

Clc1ccc(C2=CC(c3ccccc3)N3C(=N[C@H]4CCCC[C@@H]43)N2)cc1 (stereo not given in full)
inactive: HT-29 2.39 µM | K562 2.09 µM | SF-268 6.14 µM | ACHN 5.24 µM | MDA-MB-231 9.08 µM | UO-31 10.8 µM | MCF7 3.55 µM | COLO 205 1.77 µM | U-251 4.54 µM | SNB-19 4.55 µM | CAKI-1 13.9 µM | RPMI-8226 2.31 µM | OVCAR-4 5.61 µM | SF-295 7.67 µM | MOLT-4 2.64 µM | OVCAR-5 11.5 µM | PC-3 6.56 µM | SR 2.14 µM | MDA-N 6.05 µM | CCRF-CEM 4.94 µM

COc1ccc(/C=N/N=C(\N)NO)c(O)c1
inactive: HT-29 5.66 µM | K562 4.41 µM | SF-268 > 10 µM | ACHN 5.96 µM | MDA-MB-231 > 10 µM | UO-31 > 10 µM | MCF7 4.34 µM | COLO 205 > 10 µM | U-251 > 10 µM | SNB-19 > 10 µM | CAKI-1 4.11 µM | RPMI-8226 > 10 µM | OVCAR-4 > 10 µM | SF-295 > 10 µM | MOLT-4 > 10 µM | OVCAR-5 > 10 µM | PC-3 3.48 µM | SR 2.81 µM | MDA-N > 10 µM | CCRF-CEM > 10 µM

CC(=O)OCC1OC(N2C(=O)CC(N)=Nc3ccccc32)C(OC(C)=O)C(OC(C)=O)C1OC(C)=O (stereo not given)
inactive: HT-29 53.8 µM | K562 32.6 µM | SF-268 45.4 µM | ACHN 66.5 µM | MDA-MB-231 > 100 µM | UO-31 > 100 µM | MCF7 29.4 µM | COLO 205 15.1 µM | U-251 59.7 µM | SNB-19 > 100 µM | CAKI-1 > 100 µM | RPMI-8226 14.4 µM | OVCAR-4 57.8 µM | SF-295 74 µM | MOLT-4 16.7 µM | OVCAR-5 > 100 µM | PC-3 42.6 µM | SR 41 µM | MDA-N 32.7 µM | CCRF-CEM > 100 µM

CC(C)/C(Cl)=N/OC(=O)Nc1ccc(Br)cc1
inactive: HT-29 5.83 µM | K562 1.23 µM | SF-268 17.1 µM | ACHN 1.74 µM | MDA-MB-231 16.1 µM | UO-31 11.6 µM | MCF7 7.66 µM | COLO 205 1.88 µM | U-251 18.7 µM | SNB-19 20.8 µM | CAKI-1 1.73 µM | RPMI-8226 1.75 µM | OVCAR-4 12.7 µM | SF-295 15.2 µM | MOLT-4 2.39 µM | OVCAR-5 14.6 µM | PC-3 13.6 µM | SR 1.83 µM | MDA-N 4.83 µM | CCRF-CEM 1.36 µM

COC(=O)C(Cc1ccc([N+](=O)[O-])cc1)NC(=O)C(CC(=O)OC(C)(C)C)NC(=O)OC(C)(C)C (stereo not given) (Boc-Asp(OtBu)-[Phe(4-NO2)]-OMe; configuration not given here)
inactive: HT-29 > 100 µM | K562 > 100 µM | SF-268 > 100 µM | ACHN > 100 µM | MDA-MB-231 25.8 µM | UO-31 14.3 µM | MCF7 > 100 µM | COLO 205 30.2 µM | U-251 > 100 µM | SNB-19 > 100 µM | CAKI-1 > 100 µM | RPMI-8226 40 µM | OVCAR-4 38.4 µM | SF-295 > 100 µM | MOLT-4 66.8 µM | OVCAR-5 > 100 µM | PC-3 > 100 µM | SR 21.4 µM | MDA-N > 100 µM | CCRF-CEM > 100 µM

CCCCCCCCCCCCCC(=O)O[C@H]1CC[C@H](NC(=O)[C@H](OC)[C@H](O)[C@@H](O)[C@H](O)/C=C/C(C)C)C(=O)NC1 [BENGAMIDE A]
inactive: OVCAR-5 38.1 µM
active: HT-29 0.00619 µM | K562 0.00512 µM | SF-268 0.00893 µM | ACHN 0.0592 µM | MDA-MB-231 0.137 µM | UO-31 0.106 µM | MCF7 0.0392 µM | COLO 205 0.00512 µM | U-251 0.00705 µM | SNB-19 0.0115 µM | CAKI-1 0.292 µM | RPMI-8226 0.00634 µM | OVCAR-4 0.0255 µM | SF-295 0.0927 µM | MOLT-4 0.00512 µM | PC-3 0.147 µM | SR 0.0316 µM | MDA-N 0.0598 µM | CCRF-CEM 0.00512 µM
